Experimental data published in patent publication US5296481A, “Treatment process for promoting weight loss employing a substituted Δ 5” (Humanetics Corporation, priority 1992, dated 1994).

Experiments:
[1] = system: Cytosolic malic enzyme, rat liver; assay: Cytosolic malic enzyme activity in liver of steroid-fed rats (enzyme induction in rat liver by C19 steroids); assay type: in vivo, rat (male Sprague Dawley); details: 6 days, rat liver cytosol
From the text: (§1) Administration of Hormone: Male Sprague Dawley rats weighing 125-150 gm were obtained from Sasco Inc. of Oregon, Wis. The rats were allowed free access to water and Purina Rat Chow pellets for the first day after arrival Administration of the steroids began on day two. The steroids were either administered orally (combined with the Purina Rat Chow) or injected intraperitoneal as set forth in Table 1 for 6 days.
(§2) Preparation of Liver Mitochondria and Cytosol. The treated rats were sacrificed by decapitation after 6 days of treatment. The livers were excised, placed in 10 ml of a buffer consisting of 250 mM mannitol, 70 mM sucrose, and 3 mM Hepes (hereinafter MSH buffer) at pH 7.4, weighed, removed from the buffer, minced with scissors, washed with MSH buffer, suspended in MSH buffer at a ratio of 1 gram minced liver to 5 ml MSH buffer, and homogenized with a Potter-Elvehjem rotary homogenizer.
The Cytosolic fraction was obtained by recentrifuging the previously centrifuged supernatant solution at 100,000 g for 30 minutes in a Beckman Model L2 ultracentrifuge, type 40 rotor. The resultant supernatant solution was stored at -70° C.
(§3) Protein concentrations in the resultant preparations were determined by the Biuret method described in Layne E., Methods Enzymology, vol. 3, pp 450451 (1957) which is hereby incorporated by reference. Briefly, the protein concentrations were determined by treating a dilute protein solution with copper tartrate solution and measuring the optical density at 540 nm.
Cytosolic malic enzyme activity was measured in accordance with the method described in Hsu, R. Y. and Lardy, H. A., Methods Enzymol., vol. 8, pp 230-235 (1967). Briefly, aliquots of the previously prepared cytosol containing 0.1 to 0.5 mg of protein were incubated in a test tube containing 0.8 mM malate, 67 mM triethanolamine buffer (pH 7.4), 4 mM MnCl2, and 0.2 mM NADP in a total volume of 1 ml for 3 min at 26° C. Activity of malic enzyme was calculated from the rate of change in optical density measured at 340 nm from 0.5 to 2 minutes with an On Line Instrument Systems, Model 3820 Data System, Spectrophotometry, Cary--15, Version 4.08.

[2] = system: Mitochondrial G3P-DH (glycerol 3-phosphate dehydrogenase), rat liver; assay: Mitochondrial G3P-DH activity in liver of steroid-fed rats (enzyme induction in rat liver by C19 steroids); assay type: in vivo, rat (male Sprague Dawley); details: 6 days, rat liver mitochondria
From the text: as §1, §2
The Mitochondria fraction was prepared by the method described in Johnson, D. and Lardy, H. A., Methods Enzymology, vol. 10, pp 94-96 (1967) which is hereby incorporated by reference. Briefly, liver homogenate was centrifuged in a Beckman Model J2-21 centrifuge, JA-20 rotor at 750 g for 10 minutes and the resulting supernatant solution centrifuged at 15,000 g for an additional 10 minutes. The resulting mitochondrial pellets were washed twice with MSH buffer, resuspended in 0.8 to 1 ml of a 35 wt % aqueous glycerol solution, and stored at -70° C.
as §3
Enzyme Assays. Mitochondrial G3P-DH activity was measured by the method described in Wernette, M. E., Ochs, R. S., and Lardy, H. A., J. Biol. Chem., vol. 256, pp 12767-12771 (1981) which is a modified version of the method described in Gardner, R. S., Anal. Biochem., vol. 59, pp 272-276 (1974). Both references are hereby incorporated by reference. Briefly, aliquots of the previously prepared mitochondria containing 0.1 to 0.2 mg of protein were incubated in a test tube containing 50 mM sn-glycerol-3-P,50 mM potassium phosphate (pH 7.0), 1 mM KCN, and 0.2% p-iodonitrotetrazolium violet in a total volume of 0.4 ml for 30 min at 37° C. The incubating mitochondria were continuously agitated during the incubation period by a Dubnoff shaker agitated at 100 cycles/min. Incubation was ceased by the addition of 0.6 ml of 1M acetic acid to the test tube. The iodoformazan formed during the incubation period was extracted into 2 ml of ethyl acetate by adding the ethyl acetate to the test tube, mixing thoroughly, and then decanting the ethyl acetate containing the iodoformazan from the test tube. The optical densities of the iodoformazan containing ethyl acetate layers were read at 490 nm by means of an On Line Instrument Systems, Model 3820 Data System, Spectrophotometry, Cary--15, Version 4 08. An extinction coefficient value of 2.01×10^4 /(M cm) for the iodoformazan product in ethyl acetate was used to calculate enzyme activities.

SMILES	Malic Enzyme (% control) ([1]; 0.01 wt % steroid in diet)	Malic Enzyme (% control) ([1]; 0.05 wt % steroid in diet)	G3P-DH (% control) ([2]; 0.01 wt % steroid in diet)	G3P-DH (% control) ([2]; 0.05 wt % steroid in diet)	G3P-DH (% control) ([2]; 0.1 wt % steroid in diet)	Malic Enzyme (% control) ([1]; 0.1 wt % steroid in diet)	also measured
C[C@]12CC[C@H]3[C@@H](C(=O)C=C4C[C@@H](O)CC[C@@]43C)[C@@H]1CC[C@@H]2O [Δ5-Androstene 3β,17β-diol-7-one, Δ5-Androstene-3β,17β-diol-7-one]	175 % control	305 % control	130 % control	360 % control	286 % control		
C[C@]12CC[C@H](O)CC1=CC[C@@H]1[C@@H]2CC[C@]2(C)C(=O)CC[C@@H]12 [DHEA, Δ5-androstene 3β-hydroxy, 17-one, reference compound]	64 % control	337 % control	139 % control	251 % control	265 % control	394 % control	Malic Enzyme (% control) ([1]; 0.2 wt % steroid in diet): 512 % control; G3P-DH (% control) ([2]; 0.2 wt % steroid in diet): 380 % control
C[C@]12CC[C@H](O)CC1=CC(=O)[C@@H]1[C@@H]2CC[C@]2(C)C(=O)CC[C@@H]12 [7-keto DHEA, Δ5-Androstene-3β-ol-7,17-dione]	229 % control	449 % control	183 % control	439 % control	220 % control	350 % control	Malic Enzyme (% control) ([1]; 0.0575 wt % steroid in diet): 341 % control; G3P-DH (% control) ([2]; 0.0575 wt % steroid in diet): 224 % control
CC1C=C2C[C@@H](O)CC[C@]2(C)[C@H]2CC[C@]3(C)C(=O)CC[C@H]3[C@H]12 (stereo partly drawn) [Δ5-Androstene-3β-ol-7-methyl-17-one, reference compound]					91 % control	121 % control	
CC(=O)O[C@H]1CC[C@@]2(C)C(=CC(=O)[C@H]3[C@@H]4CC[C@H](OC(C)=O)[C@@]4(C)CC[C@@H]32)C1 [Δ5-androstene 3β,17β-diol-7-one diacetate]	119 % control		173 % control				Malic Enzyme (% control) ([1]; 0.13 wt % steroid in diet): 452 % control; G3P-DH (% control) ([2]; 0.13 wt % steroid in diet): 232 % control
C[C@]12CC[C@H](O)CC1=C[C@@H](O)[C@@H]1[C@@H]2CC[C@]2(C)C(=O)CC[C@@H]12 [Δ5 Androstene 3β,7α-ol-17-one, Δ5-Androstene 3β,7α-diol-17-one]		423 % control		292 % control			Malic Enzyme (% control) ([1]; 0.033 wt % steroid in diet): 374 % control; G3P-DH (% control) ([2]; 0.033 wt % steroid in diet): 308 % control
C[C@]12CC[C@H]3[C@@H]([C@H](O)C=C4C[C@@H](O)CC[C@@]43C)[C@@H]1CC[C@@H]2O [Δ5-Androstene 3β,7α,17β-triol]	108 % control		99 % control		227 % control	611 % control	
C[C@]12CC[C@H]3[C@@H]([C@H](O)C=C4C[C@@H](O)CC[C@@]43CO)[C@@H]1CCC2=O [Δ5 Androstene 3β,7α,19-ol-17-one, reference compound]					117 % control	118 % control	
CC(=O)O[C@H]1CC[C@@]2(C)C(=CC(=O)[C@@H]3[C@@H]2CC[C@]2(C)C(=O)CC[C@@H]32)C1 [Δ5-Androstene-3β-ol-7,17-one acetate, Δ5-Androstene 3β-acetoxy-7,17-dione]							Malic Enzyme (% control) ([1]; 0.115 wt % steroid in diet): 447 % control; G3P-DH (% control) ([2]; 0.115 wt % steroid in diet): 261 % control
